The values that follow come from patent US3991210A, “Acetamidine urinary antiseptics” (The Dow Chemical Company, priority 1975, dated 1976).

For one series, the system named is Proteus mirabilis. Description: Proteus mirabilis urinary tract infection in rats, bacterial count per kidney (Example 6). It is filed as in vivo. The settings on record: oral; for Mean Bacterial Count (number of organisms per kidney): three doses at 4, 28, 52 hours, 72 hours. As for the experimental part:
In a similar operation, a Proteus mirabilis urinary tract infection was established in rats using a similar surgical technique. In separate groups, the test compound 2-(4-bromophenyl)acetamidine p-toluene-sulfonate, or the reference compound nalidixic acid, were administered orally in three doses, 4, 28 and 52 hours after completion of the surgical technique used to establish the infection. Separate groups of rats were left untreated to serve as controls. After 72 hours, the animals were euthanized with carbon dioxide. The left kidney was removed, homogenized in 9 milliliters sterile saline solution, and fivefold dilutions of the resulting brei were made in brain-heart infusion broth. Bacterial counts in the dilutions were determined after 24 hours incubation at 37° C. The oral dose in milligrams per kilogram (mg/kg); millimoles per kilogram (mM); the number of animals in each group, and the base ten logarithm (Log10) of the bacterial count (number of organisms per kidney) are set out below.

Series [1] is described as follows: Acute oral lethality (LD50) in mice. The settings on record: mouse, in vivo. As for the experimental part:
Separate groups of mice are separately administered an aqueous composition containing 2-(4-bromophenyl)acetamidine hydrochloride. The compound is administered per os at various dosage rates, and the animals are held for 24 hours, after which deaths are recorded, and the LD50 (dosage lethal to 50 percent of the mice) is determined.

Series [2] can be described thus: Toxicity / detrimental pharmacological effects (general statement). Type of series: in vivo, mammals.
Series [3] can be described thus: Stability in comparison to the hydrochloride salt (general statement). Type of series: physicochemical. The settings on record: versus hydrochloride salt.
Series [4] can be described thus: Anorectic effect on repeated oral dosing in rats. It is filed as in vivo. The settings on record: 100 mg/kg per day.
Series [5] concerns bacterial microorganisms which may infect the mammalian urinary system. The experiment in a line: Urinary antiseptic activity (general statement). Also on record: species or system mammals. The settings on record: in vivo.

Turning to `Cc1ccc(S(=O)(=O)O)cc1.N=C(N)Cc1ccc(Br)cc1` [2-(4-bromophenyl)acetamidine p-toluene-sulfonate], the “Mean Bacterial Count (number of organisms per kidney)” value worked out at 7.49 Log10 in the series with Proteus mirabilis (12.5 mg/kg), 6.01 Log10 in the series with Proteus mirabilis (25 mg/kg), 4.23 Log10 in the series on Proteus mirabilis (50 mg/kg) and 2.68 Log10 with Proteus mirabilis (100 mg/kg). In addition, the “reduction of bacterial counts relative to nalidixic acid, weight basis” value in the series on Proteus mirabilis (equal dose of nalidixic acid on a weight basis) is listed as “comparable to an equal dose of nalidixic acid, on a weight basis”. For the same compound, in the series on Proteus mirabilis (on a molar basis), the “effectiveness relative to nalidixic acid, molar basis” value is “more effective, on a molar basis, than nalidixic acid”. The LD50 (in general, the dose at which mortality reaches 50%) at 24 h in series [1] worked out at 2610 mg/kg. Also, in series [2] (in vivo), the toxicity result is on record as “low toxicity”. For the same compound, the “toxicity characteristics in comparison to the corresponding hydrochloride salt” value in series [2] (versus hydrochloride salt) is “improved”. Moreover, the “stability in comparison to the corresponding hydrochloride salt” value in series [3] is on record as “improved”. In addition, in series [4] (by the fourth week of dosing), the “anorectic effect, by the fourth week” value was “decreases and substantially disappears by the fourth week of dosing”. Moreover, in series [4] (during the first week), the “anorectic effect, first week” value is reported as “an anorectic effect is observed during the first week”. The urinary antiseptic activity entry in series [5] was “high degree of urinary antiseptic activity”.
